Test results taken from paper PMC3984256, “A PCNA-Derived Cell Permeable Peptide Selectively Inhibits Neuroblastoma Cell Growth” (PLoS ONE, 2014).
Where a SMILES comes first, the peptide text is derived from it. [ ]: non-standard residue; d: D form.

Legend:
PCNA and p21 interaction = PCNA and p21 interaction in vitro; type: binding; conditions: data not shown
[1] = test system: human neural crest stem cells (7SM0032); type: cell-based; conditions: 72 h
Experimental: (§1) The human NB cell lines, SK-N-DZ, SK-N-BE(2)c, SK-N-AS, SK-N-SH, and SK-N-FI were obtained from the American Type Culture Collection (Rockville, MD). Cells were maintained in DMEM with 10% fetal bovine serum (FBS), 100 units/ml penicillin, and 100 µg/ml streptomycin in the presence of 5% CO2 at 37°C. Human PBMCs from a healthy donor were purchased from Sanguine BioSciences (Valencia, CA) and grown in RPMI1640 with10% FBS, 100 units/ml penicillin, 100 µg/ml streptomycin, and 10 ng/ml IL-2 in the presence of 5% CO2 at 37°C. Human embryonic progenitor cell line 7SM0032 was acquired from Millipore (Billerica, MA) and grown in the hEPM-1 Media Kit purchased from the same company.
(§2) To measure cell growth, cells were seeded at 3×10^4/ml. After being allowed to attach overnight, cells were treated with various concentrations of the peptides for 72 h. Cell growth was measured by the CellTitor-Glo assay (Promega, Madison, WI) according to manufacturer's instruction. To measure apoptosis, cells were seeded at 1×10^5/ml onto a chamber slide. Once attached, cells were treated with the peptides for 48 h. Cells were fixed and analyzed by a TUNEL assay using the TMR red in situ cell death detection kit (Roche Diagnostics, Indianapolis, IN).

[2] = test system: human peripheral blood mononuclear cells (PBMC); type: cell-based; conditions: 72 h
Experimental: as §1, §2

SK-N-BE(2)c cells [3] = experiment: Cell cycle analysis by PI flow cytometry, SK-N-BE(2)c; type: cell-based, human
Experimental: Cells were seeded at 1×10^5/ml. Once attached, cells were treated with or without R9-caPep for 48 hours. Cells were fixed in 60% ethanol and stained with propidium iodide (PI). The cellular PI fluorescence intensity was determined by flow cytometry. The flow cytometry data were analyzed by the FlowJo program to model various cell populations.

SK-N-BE(2)c cells [4] = experiment: TUNEL apoptosis assay, SK-N-BE(2)c; type: cell-based, human; conditions: 40 µM, 48 h, six fields
Experimental: as §2

[5] = test system: non-malignant 7SM0032 cells; experiment: TUNEL apoptosis assay, 7SM0032; type: cell-based, human; conditions: 7SM0032, same treatment (40 µM, 48 h), vs NB cells
Experimental: as §2

[6] = test system: HR-mediated DSB repair, U2OS-derived DR-GFP cells; experiment: DSB repair reporter assay, HR (DR-GFP); type: cell-based; conditions: 30 µM, GFP-positive cells 3 d after I-SceI transfection, normalized to R9-srbPep, triplicates
Experimental: The plasmid pCBASce expresses the rare cutting I-SceI meganuclease. The U2OS-derived cell lines, DR-GFP, EJ5-GFP, and SA-GFP contain a stably transfected reporter gene for DSB repair mediated by HR, end joining (EJ), and single-strand annealing (SSA), respectively. These cell lines were cultured in DMEM medium with 10% FBS at 37°C in the presence of 5% CO2.
DR-GFP, EJ5-GFP, and SA-GFP cell lines were seeded at 2.5×10^4 cells/cm^2 in a 12-well plate. Once attached overnight, cells were transfected with 1.2 µg of the pCBASce I-SceI expression plasmid mixed with 3.6 µl of Lipofectamine 2000 (Invitrogen) in 200 µl of Optimem media (Invitrogen). After incubation for 3 h, the media containing transfection complexes was aspirated and replaced with fresh media containing 30 µM of the peptides. The HR, EJ, and SSA-mediated DSB repair, indicated by the restoration of a functional GFP gene in the respective cell lines, were quantified by measuring the relative abundance of GFP-positive cells by flow cytometry 3 d after transfection.

[7] = test system: Rad51 foci in SK-N-BE(2)c cells; experiment: Rad51 foci immunofluorescence after γ-irradiation; type: cell-based, human; conditions: 2 h peptide pretreatment, 5 Gy
Experimental: To study DNA damage and repair, attached cells were pretreated with the peptides for 2 h and were then ã-irradiated (5 Gy). After irradiation, cells were cultured in the presence of the peptides for the indicated time. For analyzing ãH2A.X foci formation, cells were fixed in a solution of methanol and acetone (70%:30% v/v) for 15 min at −20°C. The slides were air-dried for storage and rehydrated in PBS prior to immunostaining. Cells were stained by a mouse monoclonal antibody specific to ãH2A.X (Millipore, Billerica, MA) followed by an Alexa Fluor 488 conjugated anti-mouse IgG antibody. For analyzing Rad51 foci formation, cells were fixed in PBS buffered 4% paraformaldehyde at room temperature for 15 min. After being washed twice by PBS, cells were permeabilized in PBS containing 0.5% triton for 15 min on ice. The fixed and permeabilized cells were stained with a rabbit polyclonal antibody raised against the human Rad51 (Santa Cruz) followed by an Alexa Fluor 488 conjugated anti-rabbit IgG antibody. Stained cells were visualized and imaged by a confocal microscope.

[8] = test system: xenograft tumors derived from the SK-N-BE2(c) cells; experiment: SK-N-BE(2)c xenograft tumor model in nude mice; type: in vivo, mouse; conditions: n = 10/group, intratumoral injection 3 times a week, vs PBS or R9-srbPep
Experimental: All experiments involving live animals were carried out in strict accordance with the recommendations in the Guide for the Care and Use of Laboratory Animals of the National Institutes of Health. The protocol (#11034) was reviewed and approved by the City of Hope Institutional Animal Care and Use Committee. Nude mice 6 weeks of age were purchased from the Jackson Laboratory (Bar Harbor, ME). SK-N-BE(2)c cells were harvested and washed twice in PBS. Cells were suspended in Matrigel (BD Biosciences) at 5×10^7/ml. 0.1 ml of suspended cells was subcutaneously injected into the right flank of each of 30 nude mice. Seven days after tumor inoculation, mice were randomly grouped into three groups with 10 mice in each group. The mice were treated with PBS, R9-srbPep, or R9-caPep 3 times a week by intratumoral injection. Tumor growth was measured weekly as well as at the end of the experiment by a dial caliper. Tumor volumes were estimated based on the length (L) and width (W) of the tumors (V = L×W^2×0.5). At the end of the experiment, tumors were isolated from sacrificed mice and their masses were measured.

IC50 [1]: > 100 µM
Structure (SMILES): CC[C@H](C)[C@H](NC(=O)CNC(=O)[C@H](CC(C)C)NC(=O)[C@H](CS)NC(=O)[C@H](CS)NC(=O)[C@@H](CCCNC(=N)N)NC(=O)[C@@H](CCCNC(=N)N)NC(=O)[C@@H](CCCNC(=N)N)NC(=O)[C@@H](CCCNC(=N)N)NC(=O)[C@@H](CCCNC(=N)N)NC(=O)[C@@H](CCCNC(=N)N)NC(=O)[C@@H](CCCNC(=N)N)NC(=O)[C@@H](CCCNC(=N)N)NC(=O)[C@H](N)CCCNC(=N)N)C(=O)N1CCC[C@H]1C(=O)N[C@@H](CCC(=O)O)C(=O)N[C@@H](CCC(N)=O)C(=O)N[C@@H](CCC(=O)O)C(=O)N[C@@H](Cc1ccc(O)cc1)C(=O)O [R9-caPep] (H-[dR][dR][dR][dR][dR][dR][dR][dR][dR]CCLGIPEQEY-OH; N-terminus and C-terminus assumed)
effect on PCNA and p21 interaction (PCNA and p21 interaction): did not block PCNA and p21 interaction in vitro
IC50 [2]: 98 µM
cell cycle arrest (SK-N-BE(2)c cells [3]; NB cells (SK-N-BE(2)c), 48 h, 20 or 40 µM): caused S-phase arrest in NB cells
apoptosis: sub-G1 cell population (SK-N-BE(2)c cells [3]; SK-N-BE(2)c, 40 µM, 48 h): rise of a sub-G1 cell population
relative abundance of cells in S-phase, longer treatment (SK-N-BE(2)c cells [3]; treatment longer than 6 h (Fig. 3c, 48 h)): increased the relative abundance of cells in S-phase
apoptosis: TUNEL positivity (SK-N-BE(2)c cells [4]): increased TUNEL positivity
effect on cell survival in non-malignant cells [5]: significantly less effect on cell cycle progression and cell survival
HR-mediated DNA repair [6]: significantly inhibited HR-mediated DNA repair
number of Rad51-positive cells at 4 h ([7]; 4 h after irradiation): reduced the number of Rad51-positive cells at 4 h after ã-irradiation
Rad51 background staining at 48 h ([7]; 48 h after irradiation): strong and diffused background staining of Rad51
Rad51 foci at 48 h ([7]; 48 h after irradiation): Rad51 foci remain visible
tumor growth (tumor mass) ([8]; end of experiment): significantly and nearly completely inhibited tumor growth
tumor growth (tumor volume) ([8]; ** p<0.01): significantly and nearly completely inhibited tumor growth
